Laboratory results published in ChEMBL document CHEMBL1201862, “PubChem BioAssay data set” (2004).
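48-hour exposure; five concentrations; linearly interpolated endpoints. GI50 = concentration required for 50% inhibition of growth.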 The source made the active and inactive calls. Cut-off read from the data, not from the text of the source: active = GI50 up to about 1.1 µM and inactive = higher.

Key:
Experiment in all cases: growth of human tumour cells (NCI), 48 h
[1] = system: KM12
[2] = system: PC-3
[3] = system: LOX IMVI
[4] = system: OVCAR-8
[5] = system: UACC-257
[6] = system: NCI-H23
[7] = system: MDA-MB-435
[8] = system: MCF7
[9] = system: U-251
[10] = system: HL-60
[11] = system: SF-268
[12] = system: A549
[13] = system: K562
[14] = system: Hs-578T
[15] = system: SK-MEL-5
[16] = system: BT-549
[17] = system: SN12C
[18] = system: SK-MEL-2
[19] = system: OVCAR-3
[20] = system: 786-0
[21] = system: HOP-92
[22] = system: DU-145
[23] = system: T47D
[24] = system: SF-295
[25] = system: MDA-N
[26] = system: UACC-62
[27] = system: CAKI-1
[28] = system: MOLT-4
[29] = system: UO-31
[30] = system: TK-10
[31] = system: HOP-62
[32] = system: OVCAR-4
[33] = system: ACHN
[34] = system: SK-OV-3
[35] = system: M14
[36] = system: SNB-19
[37] = system: SK-MEL-28
[38] = system: EKVX
[39] = system: HCT-116
[40] = system: HT-29
[41] = system: OVCAR-5
[42] = system: HCC 2998
[43] = system: HCT-15
[44] = system: RPMI-8226
[45] = system: SF-539
[46] = system: SW-620
[47] = system: NCI-H460
[48] = system: SR
[49] = system: NCI-H226
[50] = system: A498
[51] = system: COLO 205
[52] = system: CCRF-CEM
[53] = system: NCI/ADR-RES
[54] = system: Malme-3M
[55] = system: RXF 393
[56] = system: SNB-75
[57] = system: MDA-MB-231
[58] = system: NCI-H522
[59] = system: IGROV-1

Cc1cc[n+]2c(c1)-c1cc(C)cc[n+]1CC2
GI50 [1]: > 100 µM (inactive)
GI50 [2]: > 76.7 µM (inactive)
GI50 [3]: > 100 µM (inactive)
GI50 [4]: > 66.5 µM (inactive)
GI50 [5]: > 100 µM (inactive)
GI50 [6]: 84.5 µM (inactive)
GI50 [7]: > 100 µM (inactive)
GI50 [8]: > 100 µM (inactive)
GI50 [9]: > 100 µM (inactive)
GI50 [10]: > 100 µM (inactive)
GI50 [11]: > 100 µM (inactive)
GI50 [12]: > 100 µM (inactive)
GI50 [13]: > 100 µM (inactive)
GI50 [14]: > 100 µM (inactive)
GI50 [15]: > 100 µM (inactive)
GI50 [16]: > 100 µM (inactive)
GI50 [17]: 89.9 µM (inactive)
GI50 [18]: > 100 µM (inactive)
GI50 [19]: 45.2 µM (inactive)
GI50 [20]: > 100 µM (inactive)
GI50 [21]: > 100 µM (inactive)
GI50 [22]: > 100 µM (inactive)
GI50 [23]: > 100 µM (inactive)
GI50 [24]: > 100 µM (inactive)
GI50 [25]: > 100 µM (inactive)
GI50 [26]: > 100 µM (inactive)
GI50 [27]: > 100 µM (inactive)
GI50 [28]: > 100 µM (inactive)
GI50 [29]: > 100 µM (inactive)
GI50 [30]: > 100 µM (inactive)
GI50 [31]: > 100 µM (inactive)
GI50 [32]: > 100 µM (inactive)
GI50 [33]: > 100 µM (inactive)
GI50 [34]: > 100 µM (inactive)
GI50 [35]: > 100 µM (inactive)
GI50 [36]: > 100 µM (inactive)
GI50 [37]: > 100 µM (inactive)
GI50 [38]: > 100 µM (inactive)
GI50 [39]: > 100 µM (inactive)
GI50 [40]: 34.7 µM (inactive)
GI50 [41]: > 100 µM (inactive)
GI50 [42]: > 100 µM (inactive)
GI50 [43]: > 100 µM
GI50 [44]: > 100 µM (inactive)
GI50 [45]: > 100 µM (inactive)
GI50 [46]: > 100 µM (inactive)
GI50 [47]: > 100 µM (inactive)
GI50 [48]: > 100 µM (inactive)
GI50 [49]: > 100 µM (inactive)
GI50 [50]: > 100 µM (inactive)
GI50 [51]: 22.6 µM (inactive)
GI50 [52]: > 22.7 µM (inactive)
GI50 [53]: > 100 µM (inactive)
GI50 [54]: 99.5 µM (inactive)
GI50 [55]: > 100 µM (inactive)
GI50 [56]: > 100 µM (inactive)
GI50 [57]: > 71.1 µM (inactive)
GI50 [58]: 29.4 µM (inactive)
GI50 [59]: 51.2 µM (inactive)

CC(C)(CCc1nc2ccccc2[nH]1)C(=O)O
GI50 [1]: > 100 µM (inactive)
GI50 [2]: > 100 µM (inactive)
GI50 [3]: > 100 µM (inactive)
GI50 [4]: > 100 µM (inactive)
GI50 [5]: > 100 µM (inactive)
GI50 [6]: > 100 µM (inactive)
GI50 [7]: > 100 µM (inactive)
GI50 [8]: > 100 µM (inactive)
GI50 [9]: > 100 µM (inactive)
GI50 [10]: > 100 µM (inactive)
GI50 [11]: > 100 µM (inactive)
GI50 [12]: > 100 µM (inactive)
GI50 [13]: > 28 µM (inactive)
GI50 [14]: > 100 µM (inactive)
GI50 [15]: > 100 µM (inactive)
GI50 [16]: > 100 µM (inactive)
GI50 [17]: > 100 µM (inactive)
GI50 [18]: > 100 µM (inactive)
GI50 [19]: > 100 µM (inactive)
GI50 [20]: > 100 µM (inactive)
GI50 [21]: > 100 µM (inactive)
GI50 [22]: > 100 µM (inactive)
GI50 [23]: > 100 µM (inactive)
GI50 [24]: > 100 µM (inactive)
GI50 [25]: > 100 µM (inactive)
GI50 [26]: > 100 µM (inactive)
GI50 [27]: > 100 µM (inactive)
GI50 [28]: > 100 µM (inactive)
GI50 [29]: > 100 µM (inactive)
GI50 [30]: > 100 µM (inactive)
GI50 [31]: > 100 µM (inactive)
GI50 [32]: > 100 µM (inactive)
GI50 [33]: > 100 µM (inactive)
GI50 [34]: > 100 µM (inactive)
GI50 [35]: > 100 µM (inactive)
GI50 [36]: > 100 µM (inactive)
GI50 [37]: > 100 µM (inactive)
GI50 [38]: > 100 µM (inactive)
GI50 [39]: > 100 µM (inactive)
GI50 [40]: > 100 µM (inactive)
GI50 [41]: > 100 µM (inactive)
GI50 [42]: > 100 µM (inactive)
GI50 [43]: > 100 µM
GI50 [44]: > 100 µM (inactive)
GI50 [45]: > 100 µM (inactive)
GI50 [46]: > 100 µM (inactive)
GI50 [47]: > 100 µM (inactive)
GI50 [48]: > 100 µM (inactive)
GI50 [49]: > 100 µM (inactive)
GI50 [50]: > 49.2 µM (inactive)
GI50 [51]: > 100 µM (inactive)
GI50 [52]: > 100 µM (inactive)
GI50 [53]: > 100 µM (inactive)
GI50 [54]: > 100 µM (inactive)
GI50 [55]: > 100 µM (inactive)
GI50 [56]: > 100 µM (inactive)
GI50 [57]: > 100 µM (inactive)
GI50 [58]: > 100 µM (inactive)
GI50 [59]: > 100 µM (inactive)
